# Source: US20040024024A1, “Aromatic sulfone hydroxamates and their use as protease inhibitors” (priority 2001, published 2004)
# Experiments:
# Assay type in all cases: biochemical
# Human recombinant MMP-9 = molecular target: T1, Human recombinant MMP-9 (Homo sapiens, UniProt P14780); experiment: In vitro MMP inhibition, Ki determination (fluorogenic substrate II)
# T1 construct: made in house; host or cells: MMP-9-transfected HT1080 cells (spent media)
# In short: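 MMP-9 proenzyme purified from transfected HT1080 cell media, activated with APMA, trypsin or recombinant MMP-3; hydroxamates diluted in pH 7.5 Tris/NaCl/CaCl2 buffer. Cleavage of 4 μM MCA/Dpa substrate II followed by fluorescence (ex 330/em 420 nm), 1 h at room temperature. Ki from Morrison-equation fit, substrate at/below Km, uncorrected.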
# Human recombinant MMP-2 = molecular target: T2, Human recombinant MMP-2 (Homo sapiens, UniProt P08253); experiment: In vitro MMP inhibition, IC50 determination (fluorogenic substrate I); settings: value outside parenthesis
# T2 construct: made in house; host or cells: MMP-2-transfected p2AHT2 cells
# T2 sequence (P08253 110-660): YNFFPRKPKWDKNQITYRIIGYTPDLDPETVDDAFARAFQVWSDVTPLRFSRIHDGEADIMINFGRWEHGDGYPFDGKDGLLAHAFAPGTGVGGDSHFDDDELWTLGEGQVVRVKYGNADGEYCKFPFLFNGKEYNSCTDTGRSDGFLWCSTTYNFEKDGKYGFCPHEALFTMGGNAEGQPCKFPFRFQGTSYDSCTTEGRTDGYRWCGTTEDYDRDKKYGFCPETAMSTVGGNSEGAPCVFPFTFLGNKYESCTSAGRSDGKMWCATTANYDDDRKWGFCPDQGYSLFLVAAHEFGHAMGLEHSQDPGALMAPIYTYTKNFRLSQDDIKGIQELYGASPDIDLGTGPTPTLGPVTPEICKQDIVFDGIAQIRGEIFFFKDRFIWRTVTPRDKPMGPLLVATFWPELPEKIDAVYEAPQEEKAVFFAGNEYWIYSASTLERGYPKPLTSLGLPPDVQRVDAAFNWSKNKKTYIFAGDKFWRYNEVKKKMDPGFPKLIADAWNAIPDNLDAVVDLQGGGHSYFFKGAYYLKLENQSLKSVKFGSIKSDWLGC
# In short: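 IC50 was derived from the concentration-dependent fall in fluorescence (ex 328, em 415 nm) on Gly-Leu cleavage of 4 μM MCA/Dpa-quenched substrate I. Assays ran at room temperature in pH 7.5 Tris/NaCl/CaCl2/Brij buffer with MMP-2 activated by trypsin or APMA; inhibitors were diluted from 1% DMSO stocks.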
# Human recombinant MMP-13 = molecular target: T3, Human recombinant MMP-13 (Homo sapiens, UniProt P45452); experiment: as above; settings: value outside parenthesis
# T3 construct: made in house; host or cells: baculovirus / insect cells
# In short: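 Fluorescence at 415 nm (excitation 328 nm) reports Gly-Leu cleavage of 4 μM quenched methoxycoumarin peptide substrate I. Human recombinant MMP-13, activated by trypsin or APMA, was incubated at room temperature with varied inhibitor concentrations in pH 7.5 Tris/NaCl/CaCl2 buffer; IC50 derived from reduced fluorescence.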
# T1 sequence (P14780 107-707 limits assumed): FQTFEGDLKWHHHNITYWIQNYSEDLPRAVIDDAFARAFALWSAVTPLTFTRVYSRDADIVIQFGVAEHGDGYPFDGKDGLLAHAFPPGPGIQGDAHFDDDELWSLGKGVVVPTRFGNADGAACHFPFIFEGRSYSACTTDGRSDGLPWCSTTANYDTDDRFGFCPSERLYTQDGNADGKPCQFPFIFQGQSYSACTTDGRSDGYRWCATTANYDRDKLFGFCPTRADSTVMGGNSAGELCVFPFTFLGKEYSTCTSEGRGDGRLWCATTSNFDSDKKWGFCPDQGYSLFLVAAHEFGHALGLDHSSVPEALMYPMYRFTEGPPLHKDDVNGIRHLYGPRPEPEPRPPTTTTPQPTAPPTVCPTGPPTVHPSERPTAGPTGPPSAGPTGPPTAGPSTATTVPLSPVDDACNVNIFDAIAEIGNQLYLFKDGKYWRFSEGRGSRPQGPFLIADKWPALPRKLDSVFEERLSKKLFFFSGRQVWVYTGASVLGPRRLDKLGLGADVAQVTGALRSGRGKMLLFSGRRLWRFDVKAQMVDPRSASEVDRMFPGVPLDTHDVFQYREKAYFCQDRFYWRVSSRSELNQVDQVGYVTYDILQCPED
SMILES,Ki (Human recombinant MMP-9; value in parenthesis),IC50 (Human recombinant MMP-2),IC50 (Human recombinant MMP-13),Ki (Human recombinant MMP-9; value in parentheses)
O=C(NO)C1(S(=O)(=O)c2ccc(OCCc3cccc(-c4ccccc4Cl)c3)cc2)CCOCC1 [Example 114],4870 nM,1010 nM,5.2 nM,–
CC(C)c1ccc(-c2cccc(CCOc3ccc(S(=O)(=O)C4(C(=O)NO)CCOCC4)cc3)c2)cc1 [Example 109],> 10000 nM,5410 nM,152 nM,–
O=C(NO)C1(S(=O)(=O)c2ccc(OCCc3cccc(-c4ccc(OC(F)(F)F)cc4)c3)cc2)CCOCC1 [Example 112],8850 nM,66.4 nM,37.9 nM,–
NC(=O)c1cccc(-c2noc(CCCOc3ccc(S(=O)(=O)C4(C(=O)NO)CCN(C5CC5)CC4)cc3)n2)c1 [Example 129],110 nM,41.4 nM,1.9 nM,–
COc1ccc(-c2cccc(CCOc3ccc(S(=O)(=O)C4(C(=O)NO)CCOCC4)cc3)c2)cc1C [Example 119],3950 nM,1190 nM,18.3 nM,–
O=C(NO)C1(S(=O)(=O)c2ccc(OCCCc3nc(-c4ccc(OC(F)(F)F)cc4)no3)cc2)CCN(Cc2ccccc2)CC1 [Example 93],1120 nM,747 nM,15.5 nM,–
COCCN1CCC(C(=O)NO)(S(=O)(=O)c2ccc(OCCCc3nc(-c4ccc(Br)cc4C)no3)cc2)CC1 [Example 135],457 nM,24.3 nM,2.9 nM,–
O=C(NO)C1(S(=O)(=O)c2ccc(OCCCc3nc(C4CCCCC4)no3)cc2)CCN(C2CC2)CC1 [Example 137],604 nM,20.4 nM,7 nM,–
O=C(NO)C1(S(=O)(=O)c2ccc(OCCc3cccc(-c4cc(F)cc(F)c4)c3)cc2)CCOCC1 [Example 110],4340 nM,1200 nM,7.6 nM,–
O=C(NO)C1(S(=O)(=O)c2ccc(OCCc3cccc(-c4ccc(Cl)c(Cl)c4)c3)cc2)CCOCC1 [Example 121],> 10000 nM,2470 nM,21.6 nM,–
Cc1ccccc1-c1cccc(CCOc2ccc(S(=O)(=O)C3(C(=O)NO)CCOCC3)cc2)c1 [Example 116],5550 nM,1050 nM,11.2 nM,–
COCCN1CCC(C(=O)NO)(S(=O)(=O)c2ccc(OCCCc3nc(-c4ccc(CC(C)C)cc4C)no3)cc2)CC1 [Example 128],3550 nM,659 nM,23.7 nM,–
O=C(NO)C1(S(=O)(=O)c2ccc(OCCc3cccc(-c4cc(Cl)cc(Cl)c4)c3)cc2)CCOCC1 [Example 126],> 10000 nM,3260 nM,349 nM,–
Cc1cc(-c2cccc(CCOc3ccc(S(=O)(=O)C4(C(=O)NO)CCOCC4)cc3)c2)ccc1Cl [Example 118],> 10000 nM,1860 nM,29.8 nM,–
O=C(NO)C1(S(=O)(=O)c2ccc(OCCc3cccc(-c4ccc(Cl)cc4Cl)c3)cc2)CCOCC1 [Example 124],> 10000 nM,2150 nM,21.9 nM,–

# Other lines, results leading:
Ki (Human recombinant MMP-9; value in parenthesis),IC50 (Human recombinant MMP-2),IC50 (Human recombinant MMP-13),Ki (Human recombinant MMP-9; value in parentheses),SMILES
2510 nM,708 nM,21 nM,–,CCCCc1ccc(-c2noc(CCCOc3ccc(S(=O)(=O)C4(C(=O)NO)CCOCC4)cc3)n2)c(C)c1 [Example 183]
8690 nM,3080 nM,136 nM,–,Cc1cc(-c2cccc(CCCOc3ccc(S(=O)(=O)C4(C(=O)NO)CCOCC4)cc3)c2)ccc1Cl [Example 166]
6500 nM,4360 nM,70.7 nM,–,O=C(NO)C1(S(=O)(=O)c2ccc(OCCCc3cccc(-c4ccc(Cl)c(Cl)c4)c3)cc2)CCOCC1 [Example 169]
59.5 nM,133 nM,7.4 nM,–,COCCN1CCC(C(=O)NO)(S(=O)(=O)c2ccc(OCCCc3nc(-c4cccc5ccccc45)no3)cc2)CC1 [Example 199]
9440 nM,5160 nM,377 nM,–,O=C(NO)C1(S(=O)(=O)c2ccc(OCCCc3cccc(-c4cc(Cl)cc(Cl)c4)c3)cc2)CCOCC1 [Example 172]
220 nM,84.7 nM,12.4 nM,–,COCCN1CCC(C(=O)NO)(S(=O)(=O)c2ccc(OCCCc3nc(-c4ccc(C5(c6ccccc6)CC5)cc4)no3)cc2)CC1 [Example 185]
–,–,–,255 nM,COCCN1CCC(C(=O)NO)(S(=O)(=O)c2ccc(OCCCc3cccc(-c4ccc(F)cc4F)c3)cc2)CC1 [Example 513]
–,–,–,39.8 nM,COCCN1CCC(C(=O)NO)(S(=O)(=O)c2ccc(OCCCc3cccc(-c4cccs4)c3)cc2)CC1 [Example 510]
